Reference: patent US20150366821A1, “ADRENERGIC AGONISTS FOR USE IN TREATING LIVER DAMAGE” (priority 2012, published 2015)

Assays:
[1] = tested on: APAP induced liver injury; experiment: APAP induced liver injury model (serum ALT, % necrosis, deaths); conditions: for ALT 3 h after APAP treatment: APAP alone vs APAP with ISO
Experimental: (§1) Dbh^−/− mice were administered ISO as previously described (Mackintosh, C. A., et al. 2000). Mouse recombinant TWEAK (R&D systems) was administered IP at 0.04 μg/g body weight.
The degree of liver injury was assessed by histology and serum ALT. All liver sections were stained with haematoxylin and eosin (H&E) and scanned by NanoZoomer (Hamamatsu, Japan). Necrotic area was measured and expressed as a percentage of necrotic tissue in whole area of liver section using NDP.view (Hamamatsu, Japan).

[2] = tested on: 603B cells; experiment: 603B cell proliferation assay (CCK-8 / direct cell counts); format: cell-based, murine
Experimental: Cell proliferation assay was performed using the Cell counting Kit-8 (CCK-8) according to the manufacturer's protocol.
To further confirm the CCK-8 assay we also directly counted the cell numbers in some experiments. Adherent cells were treated with 0.25% trypsin solution containing 0.02% EGTA in Ca^2+ and Mg^2+ free phosphate-buffered saline at 37° C. for 5 min, and the viable cell number and dead cell number was determined using Nucleocounter (Chemometec).

[3] = tested on: β-catenin in hepatocytes; experiment: β-catenin expression on primary hepatocytes (western blotting); format: cell-based, mice; conditions: data not shown
Experimental: Western blotting was performed as described (Soeda, J et al., 2012). Western blots shown are representative of 2 or 3 independent repeats. Semi-quantitative analysis of western blots by densitometry was carried out using LabWorks 4.6 software (UVP, USA).

[4] = tested on: HPC expansion and hepatomegaly; experiment: Dbh−/− mice on a diet inducing NASH; format: in vivo; conditions: infusion of ISO
[5] = tested on: hepatic progenitor cells (HPC); experiment: CK19 positive HPC number in Dbh−/− mice infused with isoprenaline; format: in vivo; conditions: ISO infused at 20 mg/kg/day
Experimental: as §1

[6] = tested on: hepatic progenitor cells (HPC); experiment: HPC number in livers of normal C57BL/6J mice (EpCAM flow cytometry, CK19 immunohistochemistry); format: in vivo; conditions: ISO 2.5 mg/kg
[7] = tested on: canonical Wnt pathway (β-catenin) in 603B cells; experiment: Canonical Wnt pathway in 603B cells (western blot, immunocytochemistry, real-time PCR); format: cell-based, murine
[8] = tested on: canonical Wnt pathway on HPC; experiment: Canonical Wnt pathway in liver of ISO treated mice (PCR, immunohistochemistry); format: in vivo
[9] = tested on: hepatic stellate cells (HSC) and Kupffer cells (KC); experiment: Wnt expression in isolated liver cell types ex vivo; format: cell-based, mice; conditions: presence of ISO
[10] = tested on: primary hepatocytes
[11] = tested on: HPC number and liver injury; experiment: Infusion of SNS agonists into spontaneously steatohepatitic ob/ob mice; format: in vivo
[12] = tested on: hepatic progenitor cells (HPC); experiment: HPC number in APAP induced liver injury model (flow cytometry, immunohistochemistry)
[13] = tested on: canonical Wnt pathway (β-catenin, Wnt ligands); experiment: Canonical Wnt pathway in livers of APAP treated mice (western blot, immunohistochemistry, Wnt ligand PCR); format: in vivo
Experimental: Semi-quantitative real time PCR was done with Rotor-Gene 3000 (Corbett Robotics) and QuantiFast SYBR Green PCR kit (Qiagen). All real-time PCR reactions were performed in triplicate with GAPDH as an internal control. Target gene levels in treated samples are presented as a ratio to levels detected in corresponding control samples, according to the ΔΔCt method. Western blotting was performed as described (Soeda, J et al., 2012). Western blots shown are representative of 2 or 3 independent repeats. Semi-quantitative analysis of western blots by densitometry was carried out using LabWorks 4.6 software (UVP, USA).

[14] = tested on: HPC population and liver injury; conditions: in vivo conditions simulating NASH
[15] = tested on: liver progenitors and liver injury; conditions: chronic model of liver disease; cited from earlier work
[16] = tested on: hepatic progenitor cells (HPC); format: in vivo, mice; conditions: recombinant TWEAK 0.04 μg/g IP
Text: FIG. 5C are representative images of immunohistochemical staining with CK19 (DAB chromogen, brown), upper panels; and CK19 with Ki67 (AEC chromogen, red), double staining (middle panels) and NFκB p65 immunostaining (lower panels). Insert=higher magnification, arrow head indicates positive staining of ki67 in CK 19+ve HPCs. White arrow head indicates nuclear localization of NFKb p65 in periportal ductular cells;
Nuclei were stained with DAPI (Vector).

[17] = 24 h after APAP 375 mg/kg, APAP alone vs ISO (2.5 mg/kg) 1 h after APAP

For CC(=O)Nc1ccc(O)cc1 [APAP, Paracetamol], the “ALT 3 h after APAP treatment” value [1] was “significant elevation in ALT”, the ALT [1, 17] was 3332±462.9 IU/L and the deaths ([1]; APAP 500 mg/kg intraperitoneally) was “significant number of deaths”.

For CC(C)NCC(O)c1ccc(O)c(O)c1 (stereo not shown) [ISO, Isoprenaline], the 603B cell proliferation ([2]; ISO 100 pM-10 μM) was “induced 603B cell proliferation”, the “β-catenin expression on hepatocytes (Western blotting)” value [3] was “did not increase β-catenin expression” and the “loss of hepatomegaly and expansion of HPC on NASH diet” value [4] was “reversed”. The “ALT 3 h after APAP treatment” value [1] was “significantly attenuated”, the ALT [1, 17] was 674.1±173 IU/L and the hepatic necrosis [1, 17] was 18.48±1.935%. The “effect on deaths after APAP” value ([1]; APAP 500 mg/kg intraperitoneally, ISO treatment) was “reduced by ISO treatment”, the “APAP induced-liver injury (ALT)” value ([1]; ISO administered 3 hrs post APAP) was “markedly reduced APAP induced-liver injury” and the “HPC numbers (CK-19 positive cells)” value [5] was “significantly recovered HPC numbers”. The “number of HPC cells (EpCAM flow cytometry, CK19 immunohistochemistry)” value [6] was “increased the number of the HPC cells”, the “Wnt1, 3a, 6 and ma mRNA expression” value ([7]; 10 μM ISO, real-time PCR) was “significantly increased” and the “expression of cyclin D1” value ([7]; 10 μM ISO, western blot) was “significantly upregulated”. The “expression of dephophorelated β-catenin (activated β-catenin)” value ([7]; 10 μM ISO, western blot) was “significantly upregulated”, the “total β-catenin expression” value ([7]; 10 μM ISO, western blot) was “significantly increased” and the “nuclear localisation of β-catenin” value ([7]; immunofluorescence cytochemistry) was “accumulation of β-catenin in the nuclei”. The “Wnt6 mRNA in total liver” value ([8]; 24 h after ISO injection) was “upregulation of Wnt6 mRNA”, the “β-catenin immunoreactivity on periportal ductular cell” value ([8]; 24 h after ISO, immunohistochemistry) was “strong β-catenin immunoreactivity” and the “Wnt 6 expression in HSC or KC” value [9] was “did not induce upregulation of Wnt 6”. For the same molecule, the “protection of hepatocytes from APAP induced death (LDH release)” value ([10]; ISO pre-treatment 100 pM-10 μM, 10 mM APAP) was “did not protect”, the HPC number [11] was “increases in HPC number” and the liver injury [11] was “reduction in liver injury”. For the same molecule, the “number of HPCs (flow cytometry and immunohistochemistry)” value ([12]; APAP 375 mg/kg + ISO vs APAP alone) was “significantly increased the number of HPCs”, the “HPC density in the smallest portal tract (CK19 positivity)” value ([12]; APAP+ISO group compared to APAP alone group) was “significantly increased” and the “β-catenin expression in liver (Western blotting)” value ([13]; 24 h after injection, ISO treated vs APAP alone and controls) was “significantly increased”. The “Wnt6 expression in total liver” value ([13]; APAP+ISO group compared to APAP only group, 24 h) was “significantly higher expression”, the “Wnt 10a expression” value ([13]; APAP+ISO group, 2 h after APAP administration) was “significantly higher expression” and the β-catenin activation ([13]; APAP+ISO group, 3 h after APAP administration) was “significant β-catenin activation”. For the same molecule, the “activated β-catenin staining in liver (immunohistochemistry)” value ([13]; APAP+ISO treated groups, 24 h) was “strong β-catenin staining”.

In the case of CC(=O)N[C@@H](CS)C(=O)O [NAC, N-Acetyl Cysteine], the “hepatocyte injury (ALT)” value ([1]; NAC 150 mg/kg administered 1 hour following APAP overdose) is reported as “markedly reduces hepatocyte injury” and the “protection from APAP injury (ALT)” value ([1]; NAC administered 3 hrs post APAP) is reported as “did not have a protective role”.

With NC[C@H](O)c1ccc(O)c(O)c1 [NE, Norepinephrine] the HPC number [11] was “increases in HPC number” and the liver injury [11] was “reduction in liver injury”.

In the case of CNC[C@H](O)c1cccc(O)c1 [PE, phenylephrine], the 603B cell proliferation ([2]; PE 10 pM to 10 μM) is reported as “induced moderate but significant proliferation”, the ALT ([1]; APAP 375 mg/kg, PE 3 mg (3 mg/kg) 1 h after APAP, 24 hrs) is reported as 2000±1200 and the ALT ([1]; APAP 375 mg/kg, PE 10 mg (10 mg/kg) 1 h after APAP, 24 hrs) is reported as 450±200.

With CC(C)NCC(O)COc1cccc2ccccc12 (stereo not shown) [PRL, propranolol] the “effect on ISO induced 603B proliferation” value ([2]; pre-treatment with 10 μM PRL, 10 μM ISO) was “inhibited ISO induced proliferation”, the HPC population [14] was “expanded the HPC population” and the “numbers of HPCs (CK19 positive cells density)” value ([12]; APAP with subsequent PRL) was “reduced numbers of HPCs”.

In the case of COc1cc2nc(N3CCN(C(=O)c4ccco4)CC3)nc(N)c2cc1OC [PRZ, prazosin], the liver injury [15] is listed as “reduced injury” and the liver progenitors [15] is listed as “expanded liver progenitors”.

With Wnt3a the “β-catenin expression on hepatocytes (Western blotting)” value [3] was “induced increased β-catenin expression”.

B1: DKK1: Wnt antagonist, recombinant mouse Dkk1 (protein, UniProt O54908 32-272, looked up)
Dickkopf-related protein 1: TLNSVLINSNAIKNLPPPLGGAGGQPGSAVSVAPGVLYEGGNKYQTLDNYQPYPCAEDEECGSDEYCSSPSRGAAGVGGVQICLACRKRRKRCMRHAMCCPGNYCKNGICMPSDHSHFPRGEIEESIIENLGNDHNAAAGDGYPRRTTLTSKIYHTKGQEGSVCLRSSDCAAGLCCARHFWSKICKPVLKEGQVCTKHKRKGSHGLEIFQRCYCGEGLACRIQKDHHQASNSSRLHTCQRH
With B1 the “proliferation of ISO-treated vs ISO plus DKK1-treated 603B cells” value ([2]; recombinant Dkk1 0.1 μg/ml, ISO 10 μM, CCK8) was “trend towards statistical difference”, the “effect on protection by EpCAM positive cell administration” value ([1]; APAP + EpCAM+ve cells + DKK1) was “reversed the effect of EpCAM positive cell administration” and the “effect on protection by ISO stimulated 603B conditioned media” value ([10]; recombinant DKK1 0.1 μg/ml with CM) was “reversed”.

B2: TWEAK: Tumour associated weak inducer of apoptosis; mouse recombinant TWEAK (R&D systems) (protein, UniProt O43508 94-249, looked up)
Tumor necrosis factor ligand …: SAPKGRKTRARRAIAAHYEVHPRPGQDGAQAGVDGTVSGWEEARINSSSPLRYNRQIGEFIVTRAGLYYLYCQVHFDEGKAVYLKLDLLVDGVLALRCLEEFSATAASSLGPQLRLCQVSGLLALRPGSSLRIRTLPWAHLKAAPFLTYFGLFQVH
With B2 the “APAP induced liver injury (% necrosis, serum ALT)” value ([1]; TWEAK 0.04 μg/g pre-treatment before APAP, 24 h) was “protected from APAP induced liver injury” and the “HPC proliferation (CK19+ve cells)” value [16] was “induced HPC proliferation”.
